Assay results as given in patent publication US20090275653A1, “POLYMORPHIC FORMS OF LADOSTIGIL TARTRATE” (priority 2005, published 2009).
“Also recorded” adds a separate entry of the source.

Tests used:
Format in all cases: physicochemical
[1] = Water content (Karl Fischer) and loss on drying (TGA) of the form as obtained; conditions: for Water content: by weight
Experimental: (§1) TGA analysis was performed using a Mettler M3 meter. The weight of the samples was about 10 mg. The samples were scanned at a rate of 10° C./min from 25° C. to 200° C. The oven was constantly purged with nitrogen gas at a flow rate of 40 ml/min. Standard 70 μl alumina crucibles covered by lids with 1 hole were used.
(§2) The water content of ladostigil tartrate was measured by methods known in the art, such Karl Fischer analysis.

[2] = Hygroscopicity study: exposure to 0-100% relative humidity at room temperature (Karl Fischer, TGA, crystal form by XRD)
Excerpt: Form E was placed for 1 week under 0-100% relative humidity at room temperature. Table 1 summarizes the results:
Form F was placed for 14 days under 0-100% relative humidity at room temperature. Table 2 summarizes the results:
Form H was placed for 14 days under 0-100% relative humidity at room temperature. Table 3 summarizes the results:
Form J1 was placed for 9 days under 0-100% relative humidity at room temperature. Table 4 summarizes the results:
Table 5 summarizes the results:
(§3) X-Ray powder diffraction data were obtained by method known in the art using a SCINTAG powder X-Ray diffractometer model X'TRA equipped with a solid state detector. Copper radiation of 1.5418 Å was used. A round aluminum sample holder with round zero background quartz plate, with a cavity of 25(diameter)*0.5(depth) mm was used.
as §1, §2
Crystal form was determined after equilibration of ladostigil tartrate form A for 10 days at various relative humidities at room temperature.
Form A1 was exposed at various humidity conditions at room temperature for 13 days.
Ladostigil tartrate form A1 was exposed to various humidity conditions at room temperature for 14 days. TGA was performed, and the crystal form was analyzed.
A mixture of ladostigil tartrate form A1 and E, containing primarily form A1, was exposed at various humidity conditions at room temperature for 14 days.
Form E was placed for 7 days under 0-100% relative humidity at room temperature. Table 12 summarizes the results:
Form F was placed for 14 days under 0-100% relative humidity at room temperature. Table 14 summarizes the results:
Ladostigil tartrate Form H was exposed for 14 days under 0-100% relative humidity at room temperature. Table 15 summarizes the results:
Crystal ladostigil tartrate Form J1 was placed for 9 days under 0-100% relative humidity at room temperature.

[3] = Effect of micronization, pressing and grinding (XRD)
Experimental: The effects of micronization, pressing (1 minute at 100 metric tons) and grinding were determined by XRD and the following results were obtained: […]

[4] = Effect of heating on polymorph form
Experimental: as §3
The heated sample was analyzed by XRD. Form A1 was obtained.
Various polymorph forms and mixtures thereof were heated. The heating conditions and resulting polymorph forms are described in table 17 below: […]

[5] = Transformation of crystal form upon standing; conditions: upon standing (a few hours)
Experimental: The wet material was determined to be polymorph C. Some of the samples contained polymorph C with low crystallinity. The wet material was dried at 55° C. under vacuum for 17 hours, giving polymorph E. The wet polymorph with low crystallinity was transformed to polymorph E with low crystallinity upon drying under the same conditions. Both polymorph E and polymorph E with low crystallinity were transformed to form A upon standing.
The wet material was dried at 80° C. under vacuum for 17 hours and polymorph E was formed.

[6] = 100% RH, equilibration 10 days, room temperature
[7] = pressing 1 minute at 100 metric tons
[8] = 0% RH, 14 days, room temperature
[9] = 20% RH, 14 days, room temperature
[10] = 40% RH, 14 days, room temperature
[11] = 60% RH, 14 days, room temperature
[12] = 80% RH, 14 days, room temperature
[13] = 100% RH, 14 days, room temperature
[14] = 0% RH, 9 days, room temperature
[15] = 40% RH, 9 days, room temperature
[16] = 60% RH, 9 days, room temperature
[17] = 100% RH, 9 days, room temperature

Substance: carbamic acid, ethylmethyl-, (3R)-2,3-dihydro-3-(2-propynylamino)-1H-inden-5-yl ester, (2R,3R)-2,3-dihydroxybutanedioate (2:1) [Essentially Amorphous Form]
- Weight loss / loss on drying by TGA [1]: about 5%
- Water content [1]: about 2%

Substance: carbamic acid, ethylmethyl-, (3R)-2,3-dihydro-3-(2-propynylamino)-1H-inden-5-yl ester, (2R,3R)-2,3-dihydroxybutanedioate (2:1) [Form A]
- Weight loss / loss on drying by TGA [1]: about 0.3%
- Water content [1]: about 0.3%
- Water content ([2]; 20% RH, equilibration 10 days, room temperature): 0.3%
- Water content ([2]; 40% RH, equilibration 10 days, room temperature): 0.3%
- Water content ([2]; 60% RH, equilibration 10 days, room temperature): 0.3%
- Water content ([2]; 80% RH, equilibration 10 days, room temperature): 0.3%
- Crystal Form [2, 6]: stable
- Water content [2, 6]: 0.2%
- Hygroscopicity ([2]; conclusion in words): neither Form A nor Form A1 is hygroscopic; also recorded: non-hygroscopic
- Crystal form upon exposure to high relative humidity ([2]; high relative humidity, in words): does not change crystalline form
- Crystal form after grinding ([3]; grinding): mixture of Forms A and A1
- Crystal form after pressing [3, 7]: mainly to Form A1
- Crystallinity after pressing [3, 7]: lose some extent of crystallinity

Substance: carbamic acid, ethylmethyl-, (3R)-2,3-dihydro-3-(2-propynylamino)-1H-inden-5-yl ester, (2R,3R)-2,3-dihydroxybutanedioate (2:1) [Form B]
- Weight loss / loss on drying by TGA [1]: about 1%
- Resulting form after heating/drying ([4]; 80° C., time not specified): mixture of Form A1 and form E, primarily form A1

Substance: carbamic acid, ethylmethyl-, (3R)-2,3-dihydro-3-(2-propynylamino)-1H-inden-5-yl ester, (2R,3R)-2,3-dihydroxybutanedioate (2:1) [Form C]
- Weight loss / loss on drying by TGA [1]: about 40%
- Water content [1]: about 2%
- Resulting form after heating/drying ([4]; 50° C. under vacuum, 1 hour): Form C was still detected
- Resulting form after heating/drying ([4]; 50° C. under vacuum, 12 hours): Form B
- Resulting form after heating/drying ([4]; 55° C. under vacuum, 17 hours): Form E
- Resulting form after heating/drying ([4]; 55° C., 17 hours): Form B
- Resulting form after heating/drying ([4]; 55° C., 19 hours): Form B

Substance: carbamic acid, ethylmethyl-, (3R)-2,3-dihydro-3-(2-propynylamino)-1H-inden-5-yl ester, (2R,3R)-2,3-dihydroxybutanedioate (2:1) [Form E]
- Crystal form after standing ([5]; listed as Polymorph E): mixture of polymorphs A and A1
- Crystal form after standing ([5]; listed as polymorph E): form A
- Weight loss / loss on drying by TGA [1]: 0.7-2%
- Water content [1]: 0.7-2%
- Water content by Karl Fisher ([2]; 0% RH, 1 week (7 days), room temperature): 0.7%
- Relative humidity range in which the form is stable ([2]; 1 week, room temperature): 0-60 % RH
- Water content by Karl Fisher ([2]; 20% RH, 1 week (7 days), room temperature): 0.7%
- Water content by Karl Fisher ([2]; 40% RH, 1 week (7 days), room temperature): 1.5%
- Water content by Karl Fisher ([2]; 60% RH, 1 week (7 days), room temperature): 1.8%
- Water content by Karl Fisher ([2]; 80% RH, 1 week (7 days), room temperature): 0.5%
- Water content by Karl Fisher ([2]; 100% RH, 1 week (7 days), room temperature): 0.5%

Substance: carbamic acid, ethylmethyl-, (3R)-2,3-dihydro-3-(2-propynylamino)-1H-inden-5-yl ester, (2R,3R)-2,3-dihydroxybutanedioate (2:1) [Form F]
- Weight loss / loss on drying by TGA [1]: about 3%
- Water content [1]: 1.3-2.6%
- Crystal Form (resulting form) [2, 8]: Form F
- Water content by Karl Fisher [2, 8]: 1.3%
- Crystal Form (resulting form) [2, 9]: Form F
- Loss on Dry by TGA [2, 9]: 3.0%
- Water content by Karl Fisher [2, 9]: 2.2%
- Crystal Form (resulting form) [2, 10]: Form F
- Loss on Dry by TGA [2, 10]: 2.9%
- Water content by Karl Fisher [2, 10]: 2.6%
- Crystal Form (resulting form) [2, 11]: Form A1 + ~10% E
- Loss on Dry by TGA [2, 11]: 0.3%
- Water content by Karl Fisher [2, 11]: 0.3%
- Crystal Form (resulting form) [2, 12]: Form A1 + ~20% A
- Loss on Dry by TGA [2, 12]: 0.2%
- Water content by Karl Fisher [2, 12]: 0.3%
- Loss on Dry by TGA [2, 13]: 0.3%
- Water content by Karl Fisher [2, 13]: 0.3%
- Relative humidity range in which the form is stable ([2]; 14 days, room temperature): 0-40 % RH

Substance: carbamic acid, ethylmethyl-, (3R)-2,3-dihydro-3-(2-propynylamino)-1H-inden-5-yl ester, (2R,3R)-2,3-dihydroxybutanedioate (2:1) [Form H]
- Weight loss / loss on drying by TGA [1]: about 6%
- Water content [1]: about 0.6%
- Crystal Form (resulting form) [2, 8]: Form H
- Loss on Dry by TGA [2, 8]: 6.1%
- Water content by Karl Fisher [2, 8]: 0.42%
- Crystal Form (resulting form) [2, 9]: Form F
- Loss on Dry by TGA [2, 9]: 5.2%
- Water content by Karl Fisher [2, 9]: 0.7%
- Crystal Form (resulting form) [2, 10]: Form L
- Loss on Dry by TGA [2, 10]: 2.7%
- Water content by Karl Fisher [2, 10]: 1.4%
- Crystal Form (resulting form) [2, 11]: Form A1 + ~30% E
- Loss on Dry by TGA [2, 11]: 0.5%
- Water content by Karl Fisher [2, 11]: 0.3%
- Crystal Form (resulting form) [2, 12]: Form A1 + ~20% A
- Loss on Dry by TGA [2, 12]: 0.2%
- Water content by Karl Fisher [2, 12]: 0.2%
- Crystal Form (resulting form) [2, 13]: Form A + ~30% A1
- Loss on Dry by TGA [2, 13]: 0.2%
- Water content by Karl Fisher [2, 13]: 0.3%

Substance: carbamic acid, ethylmethyl-, (3R)-2,3-dihydro-3-(2-propynylamino)-1H-inden-5-yl ester, (2R,3R)-2,3-dihydroxybutanedioate (2:1) [Form J1]
- Weight loss / loss on drying by TGA [1]: about 10%
- Water content [1]: about 1%
- Crystal Form [2, 14]: Form J1
- Loss on Dry by TGA [2, 14]: 5.4%
- Water content by Karl Fisher [2, 14]: 0.1%
- Crystal Form ([2]; 20% RH, 9 days, room temperature): partly to Form K; also recorded: Form K + ~20% J1
- Crystal Form [2, 15]: Form K
- Loss on Dry by TGA [2, 15]: 0.8%
- Water content by Karl Fisher [2, 15]: 0.2%
- Crystal Form [2, 16]: Form K
- Loss on Dry by TGA [2, 16]: 0.5%
- Water content by Karl Fisher [2, 16]: 0.2%
- Crystal Form ([2]; 80% RH, 9 days, room temperature): Form A1 + ~20% A
- Crystal Form [2, 17]: Form A + ~30% A1
- Loss on Dry by TGA [2, 17]: 0.1%
- Water content by Karl Fisher [2, 17]: 0.0%

Substance: carbamic acid, ethylmethyl-, (3R)-2,3-dihydro-3-(2-propynylamino)-1H-inden-5-yl ester, (2R,3R)-2,3-dihydroxybutanedioate (2:1) [Form K]
- Weight loss / loss on drying by TGA [1]: 0.5-0.8%
- Water content [1]: about 0.2%
- Relative humidity range in which the form is stable ([2]; from the 9 day study of Form J1, room temperature): 20-60 % RH

Substance: carbamic acid, ethylmethyl-, (3R)-2,3-dihydro-3-(2-propynylamino)-1H-inden-5-yl ester, (2R,3R)-2,3-dihydroxybutanedioate (2:1) [Form L]
- Weight loss / loss on drying by TGA [1]: 2.7-13.8%
- Water content [1]: 0.6-1.4%
- Resulting form after heating/drying ([4]; 60° C. in conventional oven, 2 hours): polymorphically stable
